Tests used:
Format in all cases: functional, cell-based
[1] = test system: HL-60; test: Cytotoxicity against human HL60 cells after 72 hrs by MTT assay; conditions: HL-60, 72 h
[2] = test system: SMMC-7721; test: Cytotoxicity against human SMMC7721 cells after 72 hrs by MTT assay; conditions: SMMC-7721, 72 h
[3] = test system: A549; test: Cytotoxicity against human A549 cells after 72 hrs by MTT assay; conditions: A549, 72 h
[4] = test system: MCF7; test: Cytotoxicity against human MCF7 cells after 72 hrs by MTT assay; conditions: MCF7, 72 h
[5] = test system: SW480; test: Cytotoxicity against human SW480 cells after 72 hrs by MTT assay; conditions: SW480, 72 h

Compound | IC50 [1] [µM] | IC50 [2] [µM] | IC50 [3] [µM] | IC50 [4] [µM] | IC50 [5] [µM]
CCC(C)C(=O)O[C@@H]1[C@@H]2OC[C@]3(C)[C@H](OC(C)=O)C[C@H](OC(C)=O)[C@](C)([C@H]4CC[C@@]5(C)[C@H](c6ccoc6)C(=O)[C@@H]6O[C@@]65[C@]14C)[C@@H]23 (stereo not given in full) [CIPADESIN M] | > 40 | > 40 | > 40 | > 40 | > 40
CCC(C)C(=O)O[C@@H]1[C@@H]2OC[C@]3(C)[C@H](OC(C)=O)C[C@H](OC(C)=O)[C@@](C)([C@@H]23)[C@H]2CC[C@]3(C)C(=CC(=O)[C@H]3c3ccoc3)[C@]12C (stereo not given in full) [CIPADESIN L] | > 40 | > 40 | > 40 | > 40 | > 40
C=C1[C@]2(O)C(=O)C[C@@]3(C)[C@H](c4ccoc4)OC(=O)C[C@]13O[C@H]1[C@@H](OC(C)=O)[C@@H](OC(C)=O)C(C)(C)[C@H](CC(=O)OC)[C@]12C [CIPADESIN P] | > 40 | > 40 | > 40 | > 40 | > 40
CC(=O)O[C@H]1C[C@@H](OC(C)=O)[C@@]2(C)CO[C@H]3[C@@H](O)[C@]4(C)[C@H](CC[C@@]5(C)[C@H](c6ccoc6)OC(=O)[C@@H]6O[C@]645)[C@]1(C)[C@@H]32 [CIPADESIN J] | > 40 | 20.4 | > 40 | > 40 | 20.2
CCC(C)C(=O)O[C@@H]1[C@H]2C(=O)[C@](C)(C3=CC[C@]4(C)[C@@H](CC(=O)O[C@H]4c4ccoc4)[C@]34O[C@H]24)[C@@H](CC(=O)OC)C1(C)C (stereo not given in full) [CIPADESIN O] | > 40 | > 40 | > 40 | > 40 | > 40
CCC(C)C(=O)O[C@@H]1[C@@H]2OC[C@]3(C)[C@H](OC(C)=O)C[C@H](OC(C)=O)[C@](C)([C@H]4CC[C@@]5(C)[C@H](c6ccoc6)OC(=O)[C@@H]6O[C@@]65[C@]14C)[C@@H]23 (stereo not given in full) [CIPADESIN K] | > 40 | > 40 | > 40 | > 40 | 36.6
CCC(C)C(=O)O[C@H]1C(C)(C)[C@H](CC(=O)OC)[C@]2(C)C(=O)[C@@]1(O)CC1=C3CC(=O)O[C@@H](c4ccoc4)[C@]3(C)CC[C@@H]12 (stereo not given in full) [CIPADESIN N] | > 40 | > 40 | > 40 | > 40 | > 40
C=C1[C@]2(O)CC[C@@]3(C)[C@H](c4ccoc4)OC(=O)C[C@]13O[C@H]1C[C@@H](OC(C)=O)C(C)(C)[C@H](CC(=O)OC)[C@]12C [CIPADESIN Q] | > 40 | > 40 | > 40 | > 40 | > 40
